According to US20230143612A1 (Arbutus Biopharma Corporation, priority 2020, published 2023):

What follows are compounds tested against PD-L1 His protein / PD-1 Fc protein (Homo sapiens, UniProt Q9NZQ7) (assay: HTRF Assay (PD-1/PD-L1 interaction)). Details: PD-L1 His 6 nM, PD-1 Fc 6 nM.
Type: binding
In short: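 HTRF: PD-L1 His (6 nM final), compound (3-fold dilutions, 20 μM to 0.001 μM final) and PD-1 Fc (6 nM final) preincubated 15 min at room temperature. Anti-human IgG-XL665 and anti-6HIS Tb cryptate (mixed at 6.7 nM and 0.35 nM) then added for 1 h at room temperature before reading.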

PD-L1 His protein / PD-1 Fc protein, sequence (Q9NZQ7 19-238 limits assumed): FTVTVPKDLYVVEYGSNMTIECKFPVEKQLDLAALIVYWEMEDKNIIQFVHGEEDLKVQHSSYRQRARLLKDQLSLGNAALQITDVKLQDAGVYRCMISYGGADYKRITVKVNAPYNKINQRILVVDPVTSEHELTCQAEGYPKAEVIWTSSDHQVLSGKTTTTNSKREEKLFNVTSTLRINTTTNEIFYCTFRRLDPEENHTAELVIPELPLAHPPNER

| Compound | IC50 |
| --- | --- |
| COc1nc(-c2cccc(-c3cccc(-c4ccn5c(=O)c(CNC[C@@H](O)CC(=O)O)cnc5c4)c3Cl)c2Cl)cc(F)c1CNC[C@@H]1CCC(=O)N1 [Example 270, (3S)-4-[[8-[2-Chloro-3-[2-chloro-3-[4-fluoro-6-methoxy-5-[[[(2S)-5-oxopyrrolidin-2-yl]methylamino]methyl]-2-pyridyl]phenyl]phenyl]-4-oxo-pyrido[1,2-a]pyrimidin-3-yl]methylamino]-3-hydroxy-butanoic acid] | 0.1 nM |
| COC(=O)C[C@H](O)CNCc1cnc2cc(-c3cccc(-c4cccc(-c5cc(F)c(CNC[C@@H]6CCC(=O)N6)c(OC)n5)c4Cl)c3Cl)ccn2c1=O [Example 271, Methyl (3S)-4-[[8-[2-chloro-3-[2-chloro-3-[4-fluoro-6-methoxy-5-[[[(2S)-5-oxopyrrolidin-2-yl]methylamino]methyl]-2-pyridyl]phenyl]phenyl]-4-oxo-pyrido[1,2-a]pyrimidin-3-yl]methylamino]-3-hydroxy-butanoate] | 0.1 nM |
| COc1nc(-c2cccc(-c3cccc(-c4ccn5c(=O)c(CNC[C@H](C)O)cnc5c4)c3Cl)c2Cl)cc(F)c1CNC[C@@H]1CCC(=O)N1 [Example 272, 8-[2-Chloro-3-[2-chloro-3-[4-fluoro-6-methoxy-5-[[[(2S)-5-oxopyrrolidin-2-yl]methylamino]methyl]-2-pyridyl]phenyl]phenyl]-3-[[[(2S)-2-hydroxypropyl]amino]methyl]pyrido[1,2-a]pyrimidin-4-one] | 0.2 nM |
| COc1nc(-c2cccc(-c3cccc(-c4ccn5c(=O)c(CNCC(C)(C)CO)cnc5c4)c3Cl)c2Cl)ccc1CNC[C@@H]1CCC(=O)N1 [Example 273, (S)-8-(2,2′-dichloro-3′-(6-methoxy-5-((((5-oxopyrrolidin-2-yl)methyl)amino)methyl)pyridin-2-yl)-[1,1′-biphenyl]-3-yl)-3-(((3-hydroxy-2,2-dimethylpropyl)amino)methyl)-4H-pyrido[1,2-a]pyrimidin-4-one] | 4.2 nM |
| COc1nc(-c2cccc(-c3cccc(-c4ccn5c(=O)c(CNC[C@@H](O)CC(N)=O)cnc5c4)c3Cl)c2Cl)cc(F)c1CNC[C@@H]1CCC(=O)N1 [Example 275, (3S)-4-[[8-[2-Chloro-3-[2-chloro-3-[4-fluoro-6-methoxy-5-[[[(2S)-5-oxopyrrolidin-2-yl]methylamino]methyl]-2-pyridyl]phenyl]phenyl]-4-oxo-pyrido[1,2-a]pyrimidin-3-yl]methylamino]-3-hydroxy-butanamide] | 0.1 nM |
| CNCCCN(C)Cc1ccc(-c2cccc(-c3cccc(-c4ccn5c(=O)c(CN(C)CCNC)cnc5c4)c3Cl)c2Cl)nc1OC [Example 276, 8-(2,2′-dichloro-3′-(6-methoxy-5-((methyl(3-(methylamino)propyl)amino)methyl)pyridin-2-yl)-[1,1′-biphenyl]-3-yl)-3-((methyl(2-(methylamino)ethyl)amino)methyl)-4H-pyrido[1,2-a]pyrimidin-4-one] | 90 nM |
| COc1nc(-c2cccc(-c3cccc(-c4ccn5c(=O)c(CN(C)CCNC(=O)OC(C)(C)C)cnc5c4)c3Cl)c2Cl)ccc1CN(C)CCNC(=O)OC(C)(C)C [Example 277, tert-butyl (2-(((6-(3′-(3-(((2-((tert-butoxycarbonyl)amino)ethyl)(methyl)amino)methyl)-4-oxo-4H-pyrido[1,2-a]pyrimidin-8-yl)-2,2′-dichloro-[1,1′-biphenyl]-3-yl)-2-methoxypyridin-3-yl)methyl)(methyl)amino)ethyl)carbamate] | 200 nM |
| CNCCN(C)Cc1cnc2cc(-c3cccc(-c4cccc(-c5ccc(CNC[C@@H]6CCC(=O)N6)c(OC)n5)c4Cl)c3Cl)ccn2c1=O [Example 278, (S)-8-(2,2′-dichloro-3′-(6-methoxy-5-((((5-oxopyrrolidin-2-yl)methyl)amino)methyl)pyridin-2-yl)-[1,1′-biphenyl]-3-yl)-3-((methyl(2-(methylamino)ethyl)amino)methyl)-4H-pyrido[1,2-a]pyrimidin-4-one] | 0.1 nM |
| COc1nc(-c2cccc(-c3cccc(-c4ccn5c(=O)c(CN(C)CCN)cnc5c4)c3Cl)c2Cl)ccc1CNC[C@@H]1CCC(=O)N1 [Example 279, (S)-3-(((2-aminoethyl)(methyl)amino)methyl)-8-(2,2′-dichloro-3′-(6-methoxy-5-((((5-oxopyrrolidin-2-yl)methyl)amino)methyl)pyridin-2-yl)-[1,1′-biphenyl]-3-yl)-4H-pyrido[1,2-a]pyrimidin-4-one] | 0.1 nM |
| COc1nc(-c2cccc(-c3cccc(-c4ccn5c(=O)c(CN(C)CCO)cnc5c4)c3Cl)c2Cl)ccc1CNC[C@@H]1CCC(=O)N1 [Example 281, (S)-8-(2,2′-Dichloro-3′-(6-methoxy-5-((((5-oxopyrrolidin-2-yl)methyl)-amino)-methyl)pyridin-2-yl)-[1,1′-biphenyl]-3-yl)-3-(((2-hydroxyethyl)(methyl)amino)methyl)-4H-pyrido[1,2-a]-pyrimidin-4-one] | 0.1 nM |
| COc1nc(-c2cccc(-c3cccc(-c4ccn5ncc(CNC[C@@H]6CCC(=O)N6)c5n4)c3Cl)c2Cl)ccc1CNC[C@@H]1CCC(=O)N1 [Example 282, (S)-5-((((6-(2,2′-Dichloro-3′-(3-(((((S)-5-oxopyrrolidin-2-yl)-methyl)amino)-methyl)-pyrazolo[1,5-a]pyrimidin-5-yl)-[1,1′-biphenyl]-3-yl)-2-methoxypyridin-3-yl)methyl)-amino)methyl)-pyrrolidin-2-one] | 8.7 nM |
| COc1nc(-c2cccc(-c3cccc(-c4ccn5c(=O)c(CNC[C@@H]6CCC(=O)N6)cnc5c4)c3Cl)c2Cl)ccc1C1(CN)CC1 [Example 283, (S)-8-(3′-(5-(1-(Aminomethyl)cyclopropyl)-6-methoxypyridin-2-yl)-2,2′-dichloro-[1,1′-biphenyl]-3-yl)-3-((((5-oxopyrrolidin-2-yl)methyl)amino)methyl)-4H-pyrido[1,2-a]pyrimidin-4-one] | 150 nM |
| COc1nc(-c2cccc(-c3cccc(-c4ccn5c(=O)c(CNC[C@H]6CNC(=O)C6)cnc5c4)c3Cl)c2Cl)ccc1CNC[C@@H]1CCC(=O)N1 [Example 284, 8-(2,2′-Dichloro-3′-(6-methoxy-5-(((((S)-5-oxopyrrolidin-2-yl)methyl)-amino)methyl)-pyridin-2-yl)-[1,1′-biphenyl]-3-yl)-3-(((((S)-5-oxopyrrolidin-3-yl)methyl)amino)methyl)-4H-pyrido[1,2-a]pyrimidin-4-one] | 0.1 nM |
| COc1nc(-c2cccc(-c3cccc(-c4cc(C)c5nc(CNC[C@@H]6CCC(=O)N6)cc(=O)n5c4)c3Cl)c2Cl)ccc1CNC[C@@H]1CCC(=O)N1 [Example 288, 7-(2,2′-Dichloro-3′-(6-methoxy-5-(((((S)-5-oxopyrrolidin-2-yl)methyl)amino)methyl)pyridin-2-yl)-[1,1′-biphenyl]-3-yl)-9-methyl-2-(((((S)-5-oxopyrrolidin-2-yl)methyl)amino)methyl)-4H-pyrido[1,2-a]pyrimidin-4-one] | 56 nM |
| COC(=O)C1CN(Cc2cnc3cc(-c4cccc(-c5cccc(-c6ccc(CN7CC(C(=O)OC)C7)c(OC)n6)c5Cl)c4Cl)ncc3c2)C1 [Example 289, Methyl 1-((6-(2,2′-dichloro-3′-(3-((3-(methoxycarbonyl)azetidin-1-yl)methyl)-1,6-naphthyridin-7-yl)-[1,1′-biphenyl]-3-yl)-2-methoxypyridin-3-yl)methyl)azetidine-3-carboxylate] | 9 nM |
| COc1nc(-c2cccc(-c3cccc(-c4ccn5c(=O)c(C6=NCC(O)CN6)c(C)nc5c4)c3Cl)c2Cl)ccc1CNC[C@@H]1CCC(=O)N1 (stereo partly drawn) [Example 290, 8-(2,2′-dichloro-3′-(6-methoxy-5-(((((S)-5-oxopyrrolidin-2-yl)methyl)amino)methyl)pyridin-2-yl)-[1,1′-biphenyl]-3-yl)-3-(5-hydroxy-1,4,5,6-tetrahydropyrimidin-2-yl)-2-methyl-4H-pyrido[1,2-a]pyrimidin-4-one] | 0.4 nM |
| COC(=O)C1CN(Cc2cnc3cc(-c4cccc(-c5cccc(-c6ccc(CNC[C@@H]7CCC(=O)N7)c(OC)n6)c5Cl)c4Cl)cc(C)n3c2=O)C1 [Example 291, (S)-Methyl 1-((8-(2,2′-dichloro-3′-(6-methoxy-5-((((5-oxopyrrolidin-2-yl)methyl)amino)methyl)pyridin-2-yl)-[1,1′-biphenyl]-3-yl)-6-methyl-4-oxo-4H-pyrido[1,2-a]pyrimidin-3-yl)methyl)azetidine-3-carboxylate] | 0.1 nM |
| CNC(=O)C[C@H](O)CNCc1cnc2cc(-c3cccc(-c4cccc(-c5ccc(CNC[C@@H]6CCC(=O)N6)c(OC)n5)c4Cl)c3Cl)ccn2c1=O [Example 292, (3S)-4-[[8-[2-Chloro-3-[2-chloro-3-[6-methoxy-5-[[[(2S)-5-oxopyrrolidin-2-yl]methylamino]methyl]-2-pyridyl]phenyl]phenyl]-4-oxo-pyrido[1,2-a]pyrimidin-3-yl]methylamino]-3-hydroxy-N-methyl-butanamide] | 0.1 nM |
| CNC(=O)C[C@H](O)CNCc1cnc2cc(-c3cccc(-c4cccc(-c5cc(F)c(CNC[C@@H]6CCC(=O)N6)c(OC)n5)c4Cl)c3Cl)ccn2c1=O [Example 293, (3S)-4-[[8-[2-Chloro-3-[2-chloro-3-[4-fluoro-6-methoxy-5-[[[(2S)-5-oxopyrrolidin-2-yl]methylamino]methyl]-2-pyridyl]phenyl]phenyl]-4-oxo-pyrido[1,2-a]pyrimidin-3-yl]methylamino]-3-hydroxy-N-methyl-butanamide] | 0.1 nM |
| COC(=O)CNCc1cnc2cc(-c3cccc(-c4cccc(-c5ccc(CNC[C@@H]6CCC(=O)N6)c(OC)n5)c4Cl)c3Cl)cc(C)n2c1=O [Example 294, (S)-Methyl 2-(((8-(2,2′-dichloro-3′-(6-methoxy-5-((((5-oxopyrrolidin-2-yl)methyl)amino)methyl)pyridin-2-yl)-[1,1′-biphenyl]-3-yl)-6-methyl-4-oxo-4H-pyrido[1,2-a]pyrimidin-3-yl)methyl)amino)acetate] | 0.4 nM |
